Two compounds from publication PMC5466349 (Pharmacotherapy, 2014) can be followed below.

The data set is described as follows: clinical. Conditions: human, in vivo; for half-life: T ½; for half-life / Tmax: geometric mean (90% CI), post-ginseng.

`Cc1cccc(C)c1OCC(=O)N[C@@H](Cc1ccccc1)[C@@H](O)C[C@H](Cc1ccccc1)NC(=O)[C@H](C(C)C)N1CCCNC1=O` [Lopinavir, lopinavir]: the “Cl/Fss geometric mean ratio (90% CI), post-ginseng/pre-ginseng” value is 1.05 (0.94–1.17); the “T ½ geometric mean ratio (90% CI), post-ginseng/pre-ginseng” value is 1.19 (0.92–1.46); the half-life was 600 min; the Tmax was found to be 2.5 h.

In the case of `CC(C)c1nc(CN(C)C(=O)N[C@H](C(=O)N[C@@H](Cc2ccccc2)C[C@H](O)[C@H](Cc2ccccc2)NC(=O)OCc2cncs2)C(C)C)cs1` [Ritonavir, ritonavir], the half-life was 463 min and the Tmax was 2.7 h.

The half-life is the time needed for the level to fall by half in the phase considered. A lower half-life goes with fast loss. For orientation: Tmax means the time at which the peak concentration occurs.
